Values quoted from earlier work, collected in patent US20240024253A1, “Continuous Drug Delivery Systems and Methods” (Pike Therapeutics Inc., priority 2022, published 2024).

Experiments:
[1] = target: CB2 cannabinoid receptor (Homo sapiens, UniProt P34972); details: CB2 versus CB1
[2] = target: CB1 cannabinoid receptor; details: parameter not named at the place

Chain of CB2 cannabinoid receptor (P34972 whole entry): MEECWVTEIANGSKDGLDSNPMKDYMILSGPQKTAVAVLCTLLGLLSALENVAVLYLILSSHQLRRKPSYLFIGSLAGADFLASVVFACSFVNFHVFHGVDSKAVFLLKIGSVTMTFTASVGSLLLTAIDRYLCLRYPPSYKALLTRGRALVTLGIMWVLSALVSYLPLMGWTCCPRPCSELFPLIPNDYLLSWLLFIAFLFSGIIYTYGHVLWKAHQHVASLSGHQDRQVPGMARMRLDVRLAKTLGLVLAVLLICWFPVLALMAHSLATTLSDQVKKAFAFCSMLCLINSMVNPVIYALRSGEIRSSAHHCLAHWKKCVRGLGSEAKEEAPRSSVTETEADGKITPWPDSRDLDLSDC

Question: With `CCCCCCC(C)(C)c1cc(O)c2c(c1)oc(=O)c1ccc(OC)cc12` [AM-1710] as the molecule, how does the “selectivity / binding strength CB2 over CB1” value [1] read?
Answer: 54 ×

Question: With `CCCn1cc(C(=O)c2ccc(C)c3ccccc23)c2ccccc21` [JWH-120] as the molecule, how does the “selectivity for CB2 receptor” value [1] read?
Answer: 173 fold

Question: Which “selectivity for CB2 over the CB1 subtype” value [1] does the source give for `CCCn1c(C)c(C(=O)c2ccc(C)c3ccccc23)c2ccccc21` [JWH-148] here?
Answer: more than 8 times

Question: For `CCCCCn1cc(Cc2cccc3ccccc23)c2ccccc21` [JWH-175, (1-pentylindol-3-yl)naphthalen-1-ylmethane], which Ki [2] is on record?
Answer: 22 nM

Question: For `CCCCCCC(C)(C)c1cc(OC)c2c(c1)OC(C)(C)C1CCC(O)CC21` (stereo not drawn) [JWH-350, 11-nor-1-methoxy-3-(1′,1′-dimethylheptyl)-9α-hydroxyhexahydrocannabinol], which “selectivity for CB2 receptor” value [1] is on record?
Answer: 33 fold
